Measured values from patent US11083725B2 (priority 2014, dated 2021).

System: NHBE cells
Test: Biolog metabolic array: substrate use by NHBE cells with or without CA09 infection
Format: cell-based, human
Conditions: for Substrate use, 590 nm absorbance normalized to zero hour, 0 hr: Biolog PMM2, 0 hr; for Substrate use, 590 nm absorbance normalized to zero hour, 1 hr: Biolog PMM2, 1 hr; for Substrate use, 590 nm absorbance normalized to zero hour, 5 hr: Biolog PMM2, 5 hr; for Substrate use, 590 nm absorbance normalized to zero hour, 7 hr: Biolog PMM2, 7 hr
[1] = Control (uninfected) NHBE cells
[2] = Virus (CA09-infected, MOI 1) NHBE cells
[3] = Virus: CA09-infected NHBE cells, MOI 1, Biolog PMM2
[4] = Virus (CA09-infected NHBE cells, MOI 1)

Structure (SMILES)	590 nm absorbance normalized to zero hour (substrate use), 0 hr [1]	590 nm absorbance normalized to zero hour (substrate use), 1 hr [1]	590 nm absorbance normalized to zero hour (substrate use), 2 hr [1]	590 nm absorbance normalized to zero hour (substrate use), 3 hr [1]	590 nm absorbance normalized to zero hour (substrate use), 4 hr [1]	590 nm absorbance normalized to zero hour (substrate use), 6 hr [1]	590 nm absorbance normalized to zero hour (substrate use), 8 hr [1]	590 nm absorbance normalized to zero hour (substrate use), 9 hr [1]	590 nm absorbance normalized to zero hour (substrate use), 10 hr [1]	590 nm absorbance normalized to zero hour (substrate use), 11 hr [1]	Substrate use, 590 nm absorbance normalized to zero hour, 0 hr [1]	Substrate use, 590 nm absorbance normalized to zero hour, 1 hr [1]	Substrate use, 590 nm absorbance normalized to zero hour, 5 hr [1]	Substrate use, 590 nm absorbance normalized to zero hour, 7 hr [1]	590 nm absorbance normalized to zero hour (substrate use), 0 hr [3]	590 nm absorbance normalized to zero hour (substrate use), 1 hr [3]	590 nm absorbance normalized to zero hour (substrate use), 2 hr [3]	590 nm absorbance normalized to zero hour (substrate use), 3 hr [3]	590 nm absorbance normalized to zero hour (substrate use), 4 hr [3]	590 nm absorbance normalized to zero hour (substrate use), 5 hr [3]	also measured
C[C@@H](O)CC(=O)O [b-Hydroxy-Butyric Acid]	1.00	1.65	2.08	2.16	2.31	2.37	2.68	2.90	3.02	7.04	1.00	1.65	2.75	2.49	1.00	1.78	2.31	2.61	2.77	3.16	590 nm absorbance normalized to zero hour (substrate use), 0 hr [2]: 1.00; 590 nm absorbance normalized to zero hour (substrate use), 1 hr [2]: 1.78; 590 nm absorbance normalized to zero hour (substrate use), 2 hr [2]: 2.31; 590 nm absorbance normalized to zero hour (substrate use), 3 hr [2]: 2.61; 590 nm absorbance normalized to zero hour (substrate use), 4 hr [2]: 2.77; 590 nm absorbance normalized to zero hour (substrate use), 5 hr [2]: 3.16; 590 nm absorbance normalized to zero hour (substrate use), 6 hr [2]: 3.34; 590 nm absorbance normalized to zero hour (substrate use), 7 hr [2]: 3.47; 590 nm absorbance normalized to zero hour (substrate use), 8 hr [2]: 3.62; 590 nm absorbance normalized to zero hour (substrate use), 9 hr [2]: 3.79; 590 nm absorbance normalized to zero hour (substrate use), 10 hr [2]: 3.87; 590 nm absorbance normalized to zero hour (substrate use), 11 hr [2]: 3.29; 590 nm absorbance normalized to zero hour (substrate use), 6 hr [3]: 3.34; 590 nm absorbance normalized to zero hour (substrate use), 7 hr [3]: 3.47; 590 nm absorbance normalized to zero hour (substrate use), 8 hr [3]: 3.62; 590 nm absorbance normalized to zero hour (substrate use), 9 hr [3]: 3.79; 590 nm absorbance normalized to zero hour (substrate use), 10 hr [3]: 3.87; 590 nm absorbance normalized to zero hour (substrate use), 11 hr [3]: 3.29
OC[C@@H](O)[C@@H](O[C@H]1O[C@H](CO)[C@@H](O)[C@H](O)[C@H]1O)[C@H](O)[C@@H](O)CO [Maltitol]	1.00	1.76	2.36	2.82	3.07	3.52	4.77	5.77	5.24	5.98	1.00	1.76	3.80	4.49	1.00	1.05	1.03	1.37	0.98	0.88	590 nm absorbance normalized to zero hour (substrate use), 0 hr [4]: 1.00; 590 nm absorbance normalized to zero hour (substrate use), 1 hr [4]: 1.05; 590 nm absorbance normalized to zero hour (substrate use), 2 hr [4]: 1.03; 590 nm absorbance normalized to zero hour (substrate use), 3 hr [4]: 1.37; 590 nm absorbance normalized to zero hour (substrate use), 4 hr [4]: 0.98; 590 nm absorbance normalized to zero hour (substrate use), 5 hr [4]: 0.88; 590 nm absorbance normalized to zero hour (substrate use), 6 hr [4]: 0.89; 590 nm absorbance normalized to zero hour (substrate use), 7 hr [4]: 0.92; 590 nm absorbance normalized to zero hour (substrate use), 8 hr [4]: 0.96; 590 nm absorbance normalized to zero hour (substrate use), 9 hr [4]: 1.01; 590 nm absorbance normalized to zero hour (substrate use), 10 hr [4]: 1.08; 590 nm absorbance normalized to zero hour (substrate use), 11 hr [4]: 1.16; 590 nm absorbance normalized to zero hour (substrate use), 6 hr [3]: 0.89; 590 nm absorbance normalized to zero hour (substrate use), 7 hr [3]: 0.92; 590 nm absorbance normalized to zero hour (substrate use), 8 hr [3]: 0.96; 590 nm absorbance normalized to zero hour (substrate use), 9 hr [3]: 1.01; 590 nm absorbance normalized to zero hour (substrate use), 10 hr [3]: 1.08; 590 nm absorbance normalized to zero hour (substrate use), 11 hr [3]: 1.16
C[C@@H](O)[C@H](O)[C@H](O)[C@@H](O)C=O [D-Fucose]	1.00	1.61	1.96	2.02	2.15	2.11	2.49	2.69	2.78	2.97	1.00	1.61	2.65	2.19	1.00	0.66	0.33	0.67	0.64	0.62	590 nm absorbance normalized to zero hour (substrate use), 0 hr [4]: 1.00; 590 nm absorbance normalized to zero hour (substrate use), 1 hr [4]: 0.66; 590 nm absorbance normalized to zero hour (substrate use), 2 hr [4]: 0.33; 590 nm absorbance normalized to zero hour (substrate use), 3 hr [4]: 0.67; 590 nm absorbance normalized to zero hour (substrate use), 4 hr [4]: 0.64; 590 nm absorbance normalized to zero hour (substrate use), 5 hr [4]: 0.62; 590 nm absorbance normalized to zero hour (substrate use), 6 hr [4]: 0.65; 590 nm absorbance normalized to zero hour (substrate use), 7 hr [4]: 0.65; 590 nm absorbance normalized to zero hour (substrate use), 8 hr [4]: 0.60; 590 nm absorbance normalized to zero hour (substrate use), 9 hr [4]: 0.52; 590 nm absorbance normalized to zero hour (substrate use), 10 hr [4]: 0.57; 590 nm absorbance normalized to zero hour (substrate use), 11 hr [4]: 0.61; 590 nm absorbance normalized to zero hour (substrate use), 6 hr [3]: 0.65; 590 nm absorbance normalized to zero hour (substrate use), 7 hr [3]: 0.65; 590 nm absorbance normalized to zero hour (substrate use), 8 hr [3]: 0.60; 590 nm absorbance normalized to zero hour (substrate use), 9 hr [3]: 0.52; 590 nm absorbance normalized to zero hour (substrate use), 10 hr [3]: 0.57; 590 nm absorbance normalized to zero hour (substrate use), 11 hr [3]: 0.61
